CN1COCN(Cc2cnc(Cl)s2)C1=N[N+](=O)[O-]
solubility (mole fraction)
Settings	278.15 K	283.15 K	288.15 K	293.15 K	298.15 K	303.15 K	308.15 K	313.15 K	318.15 K	323.15 K
in 1,4-dioxane	–	–	0.00255	0.00328	0.00404	0.00523	0.00637	0.00792	0.00985	0.0123
in 2-ethoxyethanol	0.00319	0.00411	0.00523	0.00627	0.00722	0.00839	0.01	0.0117	0.0141	0.0168
in 2-methoxyethanol	0.00727	0.00895	0.011	0.013	0.0152	0.0185	0.0218	0.026	0.0311	0.0374
in DMAc	0.0679	0.074	0.0817	0.0902	0.0988	0.108	0.12	0.133	0.145	0.157
in DMSO	–	–	0.0689	0.0786	0.0902	0.103	0.117	0.134	0.152	0.172
in acetic acid	–	–	–	0.013	0.0172	0.0227	0.0292	0.0387	0.0547	0.07
in acetonitrile	0.00704	0.00827	0.0105	0.0125	0.0149	0.0183	0.0227	0.0278	0.0344	0.0422
in methanol	0.000628	0.000817	0.00111	0.00141	0.00169	0.00225	0.00294	0.00397	0.00486	0.0063
in propionic acid	0.000769	0.00113	0.00147	0.00185	0.00252	0.00329	0.00406	0.00562	0.00739	0.00939

Source: BigSolDB 2.1
